Laboratory results: PubChem BioAssay AID322 (DTP/NCI, 2004)
“And” between values parts separate entries of the source, which are not always exact repeats. Equal entries are not always repeated. Toxic doses and inconclusive results are not listed.

System: CD2F1 mice, P388/ADR leukemia ip, median survival T/C
Assay: NCI In Vivo Anticancer Drug Screen. Data for tumor model P388 Leukemia resistant to Adriamycin; NSC 123127, Developed at Scr 08 (intraperitoneal) in CD2F1 (CDF1) mice
Details: endpoint: median survival time, higher = longer survival
Description: The antitumor activity of compounds was measured in mice bearing transplantable tumors. Survival or tumor size were measured and the results are expressed as the measurement made in the treated group (T) divided by the measurement made in the vehicle treated control group (C). The tumor model used in this assay is P388 Leukemia resistant to Adriamycin; NSC 123127, Developed at Scr 08 (intraperitoneal) in CD2F1 (CDF1) mice

[1] = dose: 25.0 mg/kg/injection, schedule: Q01DX005 (ip), vehicle: saline with Tween-80
[2] = dose: 50.0 mg/kg/injection, schedule: Q01DX005 (ip), vehicle: saline with Tween-80
[3] = dose: 12.5 mg/kg/injection, schedule: Q01DX005 (ip), vehicle: saline with Tween-80
[4] = dose: 6.25 mg/kg/injection, schedule: Q01DX005 (ip), vehicle: saline with Tween-80

For `CC[C@@]1(O)C(=O)OCc2c1cc1n(c2=O)Cc2cc3ccccc3nc2-1`, which T/C (dose: 1.5 mg/kg/injection, schedule: Q01DX005 (ip), vehicle: saline with Tween-80) is on record?
Its T/C is 161 % of control.

And the T/C (dose: 2.1 mg/kg/injection, schedule: Q01DX005 (ip), vehicle: saline with Tween-80)?
The T/C was 223 % of control.

What about the T/C (dose: 3.0 mg/kg/injection, schedule: Q01DX005 (ip), vehicle: saline with Tween-80) of the same molecule?
The T/C was 200 % of control.

What about the T/C (dose: 3.6 mg/kg/injection, schedule: Q01DX005 (ip), vehicle: saline with Tween-80) of the same molecule?
Its T/C is 222 % of control.

What about the T/C (dose: 6.0 mg/kg/injection, schedule: Q01DX005 (ip), vehicle: saline with Tween-80) of the same molecule?
The T/C was 216 % of control.

And the T/C (dose: 6.7 mg/kg/injection, schedule: Q04DX002 (ip), vehicle: saline with Tween-80)?
Its T/C is 198 % of control and 232 % of control.

What about the T/C (dose: 10.0 mg/kg/injection, schedule: Q04DX002 (ip), vehicle: saline with Tween-80) of the same molecule?
Its T/C is 207 % of control and 232 % of control.

What about the T/C (dose: 15.0 mg/kg/injection, schedule: Q04DX002 (ip), vehicle: saline with Tween-80) of the same molecule?
The T/C was 215 % of control and 236 % of control.

Which T/C (dose: 25.0 mg/kg/injection, schedule: Q01DX009 (ip), vehicle: distilled water + Tween-80) does the source give for `CN(C)/N=N/c1nc[nH]c1C(N)=O` here?
Its T/C is 112 % of control.

And the T/C (dose: 50.0 mg/kg/injection, schedule: Q01DX009 (ip), vehicle: distilled water + Tween-80)?
Its T/C is 124 % of control.

What about the T/C (dose: 100.0 mg/kg/injection, schedule: Q01DX009 (ip), vehicle: distilled water + Tween-80) of the same molecule?
Its T/C is 166 % of control.

And the T/C (dose: 200.0 mg/kg/injection, schedule: Q01DX009 (ip), vehicle: distilled water + Tween-80)?
The T/C was 158 % of control and 178 % of control.

What about the T/C (dose: 400.0 mg/kg/injection, schedule: Q01DX009 (ip), vehicle: distilled water + Tween-80) of the same molecule?
Its T/C is 201 % of control and 123 % of control.

With `O=C1C=C(N2CC2)C(=O)C(N2CC2)=C1N1CC1` as the molecule, how does the T/C (dose: 0.02 mg/kg/injection, schedule: Q01DX005 (ip), vehicle: saline) read?
Its T/C is 180 % of control.

And the T/C (dose: 0.04 mg/kg/injection, schedule: Q01DX005 (ip), vehicle: saline)?
Its T/C is 176 % of control and 223 % of control.

And the T/C (dose: 0.08 mg/kg/injection, schedule: Q01DX005 (ip), vehicle: saline)?
Its T/C is 240 % of control and 294 % of control.

What about the T/C (dose: 0.16 mg/kg/injection, schedule: Q01DX005 (ip), vehicle: saline) of the same molecule?
Its T/C is 233 % of control and 294 % of control.

And the T/C (dose: 0.32 mg/kg/injection, schedule: Q01DX005 (ip), vehicle: saline)?
The T/C was 87 % of control and 110 % of control.

Which T/C (dose: 0.04 mg/kg/injection, schedule: Q01DX005 (ip), vehicle: Klucel (hydroxypropylcellulose) (HPC)) does the source give for `CO[C@H](/C(C)=C/C=C/C(C)=C/c1coc(C)n1)[C@H](C)[C@H]1C[C@@H](O)[C@@]2(C)O[C@H]2/C=C/[C@@H](C)[C@@H]2C[C@@H](CC(=O)O2)C[C@H]2O[C@@H]2C(=O)O1` here?
Its T/C is 105 % of control.

What about the T/C (dose: 0.06 mg/kg/injection, schedule: Q01DX005 (ip), vehicle: Klucel (hydroxypropylcellulose) (HPC)) of the same molecule?
The T/C was 109 % of control and 113 % of control.

And the T/C (dose: 0.08 mg/kg/injection, schedule: Q01DX005 (ip), vehicle: Klucel (hydroxypropylcellulose) (HPC))?
Its T/C is 114 % of control.

And the T/C (dose: 0.09 mg/kg/injection, schedule: Q01DX005 (ip), vehicle: Klucel (hydroxypropylcellulose) (HPC))?
Its T/C is 112 % of control.

And the T/C (dose: 0.1 mg/kg/injection, schedule: Q01DX005 (ip), vehicle: Klucel (hydroxypropylcellulose) (HPC))?
The T/C was 117 % of control.

What about the T/C (dose: 0.12 mg/kg/injection, schedule: Q01DX005 (ip), vehicle: Klucel (hydroxypropylcellulose) (HPC)) of the same molecule?
Its T/C is 97 % of control.

And the T/C (dose: 0.13 mg/kg/injection, schedule: Q01DX005 (ip), vehicle: Klucel (hydroxypropylcellulose) (HPC))?
Its T/C is 109 % of control.

And the T/C (dose: 0.14 mg/kg/injection, schedule: Q01DX005 (ip), vehicle: Klucel (hydroxypropylcellulose) (HPC))?
Its T/C is 96 % of control.

And the T/C (dose: 0.16 mg/kg/injection, schedule: Q01DX005 (ip), vehicle: Klucel (hydroxypropylcellulose) (HPC))?
The T/C was 107 % of control.

What about the T/C (dose: 0.2 mg/kg/injection, schedule: Q01DX005 (ip), vehicle: Klucel (hydroxypropylcellulose) (HPC)) of the same molecule?
The T/C was 102 % of control.

Which results are given for `O=C(Oc1ccccc1)c1cc(O)c(O)c(O)c1`?
T/C [1]: 102 % of control; T/C [2]: 98 % of control; T/C (dose: 100.0 mg/kg/injection, schedule: Q01DX005 (ip), vehicle: saline with Tween-80): 99 % of control; T/C (dose: 200.0 mg/kg/injection, schedule: Q01DX005 (ip), vehicle: saline with Tween-80): 112 % of control

Which T/C (dose: 3.75 mg/kg/injection, schedule: Q01DX005 (ip), vehicle: saline with Tween-80) does the source give for `CO[C@@]12[C@@H]3N[C@@H]3CN1C1=C(C(=O)C(N3CCCC3)=C(C)C1=O)[C@@H]2COC(N)=O` here?
Its T/C is 122 % of control.

What about the T/C (dose: 10.4 mg/kg/injection, schedule: Q01DX005 (ip), vehicle: saline with Tween-80) of the same molecule?
The T/C was 122 % of control.

What about the T/C [3] of the same molecule?
Its T/C is 117 % of control and 120 % of control.

And the T/C (dose: 17.4 mg/kg/injection, schedule: Q01DX005 (ip), vehicle: saline with Tween-80)?
The T/C was 113 % of control.

Which T/C (dose: 0.87 mg/kg/injection, schedule: Q01DX009 (ip), vehicle: acid diluted with saline) does the source give for `COC(=O)C[C@](O)(CCCC(C)(C)O)C(=O)O[C@@H]1C(OC)=C[C@]23CCCN2CCc2cc4c(cc2[C@H]13)OCO4` here?
Its T/C is 104 % of control and 109 % of control.

And the T/C (dose: 1.3 mg/kg/injection, schedule: Q01DX009 (ip), vehicle: acid diluted with saline)?
Its T/C is 99 % of control.

Which T/C (dose: 0.5 mg/kg/injection, schedule: Q01DX005 (ip), vehicle: saline) does the source give for `N[C@@H](Cc1ccc(N(CCCl)CCCl)cc1)C(=O)O` here?
The T/C was 171 % of control and 202 % of control.

And the T/C (dose: 1.0 mg/kg/injection, schedule: Q01DX005 (ip), vehicle: saline)?
Its T/C is 200 % of control and 202 % of control.

And the T/C (dose: 1.62 mg/kg/injection, schedule: Q04DX003 (ip), vehicle: water)?
Its T/C is 207 % of control.

What about the T/C (dose: 2.0 mg/kg/injection, schedule: Q01DX005 (ip), vehicle: saline) of the same molecule?
The T/C was 202 % of control and 297 % of control.

What about the T/C (dose: 2.7 mg/kg/injection, schedule: Q04DX003 (ip), vehicle: water) of the same molecule?
The T/C was 215 % of control.

What about the T/C (dose: 4.0 mg/kg/injection, schedule: Q01DX005 (ip), vehicle: saline) of the same molecule?
The T/C was 202 % of control and 297 % of control.

What about the T/C (dose: 4.5 mg/kg/injection, schedule: Q04DX003 (ip), vehicle: water) of the same molecule?
Its T/C is 290 % of control.

What about the T/C (dose: 7.5 mg/kg/injection, schedule: Q04DX003 (ip), vehicle: water) of the same molecule?
The T/C was 109 % of control.

What about the T/C (dose: 8.0 mg/kg/injection, schedule: Q01DX005 (ip), vehicle: saline) of the same molecule?
The T/C was 297 % of control.

What about the T/C (dose: 12.5 mg/kg/injection, schedule: Q04DX003 (ip), vehicle: water) of the same molecule?
The T/C was 95 % of control.

With `COc1cccc(Sc2ccc([N+](=O)[O-])c3no[n+]([O-])c23)c1` as the molecule, how does the T/C (dose: 1.56 mg/kg/injection, schedule: Q01DX005 (ip), vehicle: saline with Tween-80) read?
Its T/C is 98 % of control.

What about the T/C (dose: 3.12 mg/kg/injection, schedule: Q01DX005 (ip), vehicle: saline with Tween-80) of the same molecule?
The T/C was 100 % of control.

And the T/C [4]?
The T/C was 107 % of control.

What about the T/C [3] of the same molecule?
The T/C was 110 % of control.

What about the T/C [1] of the same molecule?
Its T/C is 101 % of control.

Which results are given for `CC[C@]1(O)C[C@H]2CN(CCc3c([nH]c4ccccc34)[C@@](C(=O)OC)(c3cc4c(cc3OC)N(C)[C@H]3[C@@](O)(C(=O)OC)[C@H](OC(C)=O)[C@]5(CC)C=CCN6CC[C@]43[C@@H]65)C2)C1`?
T/C (dose: 0.5 mg/kg/injection, schedule: Q04DX003 (ip), vehicle: saline): 101 % of control; T/C (dose: 1.0 mg/kg/injection, schedule: Q04DX003 (ip), vehicle: saline): 100 % of control; T/C (dose: 2.0 mg/kg/injection, schedule: Q04DX003 (ip), vehicle: saline): 100 % of control; T/C (dose: 4.0 mg/kg/injection, schedule: Q04DX003 (ip), vehicle: saline): 83 % of control; T/C (dose: 8.0 mg/kg/injection, schedule: Q04DX003 (ip), vehicle: saline): 57 % of control

With `O=C1C=CC2OC(c3ccccc3)C(O)C2O1` (stereo not given) as the molecule, how does the T/C [4] read?
The T/C was 101 % of control.

And the T/C [3]?
The T/C was 114 % of control.

What about the T/C [2] of the same molecule?
The T/C was 119 % of control.

Which results are given for `COc1cccc2c1C(=O)c1c(O)c3c(c(O)c1C2=O)C[C@@](O)(C(=O)CO)C[C@@H]3OC1CC(N2CCOCC2)C(O)C(C)O1` (stereo not given in full)?
T/C (dose: 22.0 micrograms/kg/injection, schedule: Q04DX003 (iv), vehicle: saline + alcohol): 107 % of control; T/C (dose: 33.0 micrograms/kg/injection, schedule: Q04DX003 (iv), vehicle: saline + alcohol): 105 % of control; T/C (dose: 50.0 micrograms/kg/injection, schedule: Q04DX003 (iv), vehicle: saline + alcohol): 102 % of control; T/C (dose: 75.0 micrograms/kg/injection, schedule: Q04DX003 (iv), vehicle: saline + alcohol): 101 % of control
